Assay [1] can be described thus: Antiproliferative activity against human ALL5 cells incubated for 120 hrs followed by MTT addition further incubated for 48 hrs. The assay is classed as functional, cell-based.
The test system of another assay is A549. The experiment in a line: Antiproliferative activity against human A549 cells incubated for 72 hrs by SRB assay. The assay is classed as functional, cell-based. The conditions noted are these: A549, 72 h. For orientation: In SRB staining, fixed cells bind dye roughly in proportion to their protein.
The subject of another assay is MCF7. Kind of assay: Antiproliferative activity against human MCF-7 cells incubated for 72 hrs by SRB assay. Conditions: MCF7, 72 h.
For a further assay, the system named is LoVo. The experiment in a line: Antiproliferative activity against human LoVo cells incubated for 72 hrs by SRB assay. The assay is classed as functional, cell-based.
The nature of the next assay: cells. The assay is classed as functional, cell-based. The conditions noted are these: Homo sapiens, LoVo/DX, 72 h.
Assay [2] in a line: Resistance index, ratio of IC50 for antiproliferative activity against human Lovo/DX cells to IC50 for antiproliferative activity against human LoVo cells. In kind it is functional.
The subject of the next assay is BALB/3T3. The experiment in a line: Antiproliferative activity against mouse BALB/3T3 cells incubated for 72 hrs by SRB assay. The assay is classed as ADME, cell-based. The conditions noted are these: BALB/3T3, 72 h.
Assay [3] concerns ALL5. The experiment in a line: Cell cycle arrest in human ALL-5 cells assessed as accumulation at sub-G1 phase after 24 hrs at 5 times of IC50 by propidium iodide staining-based flow cytometric analysis relative to control. In kind it is functional.
Assay [4] concerns ALL5. The experiment in a line: Induction of apoptosis in human ALL-5 cells assessed as increase in PARP cleavage at 0.2 uM incubated for 24 hrs by Western blot analysis relative to control. In general terms: In western blotting, separated proteins are transferred to a membrane and probed.
The subject of assay [5] is ALL5. Kind of assay: Induction of apoptosis in human ALL-5 cells assessed as increase in PARP cleavage at 45 nM incubated for 48 hrs by Western blot analysis relative to control. In kind it is functional, cell-based.
The subject of assay [6] is ALL5. Kind of assay: Induction of apoptosis in human ALL-5 cells assessed as increase in PARP cleavage at 23 nM incubated for 48 hrs by Western blot analysis relative to control. In kind it is functional, cell-based.
Assay [7] deals with ALL5. Kind of assay: Induction of apoptosis in human ALL-5 cells assessed as increase in PARP cleavage at 43 nM incubated for 48 hrs by Western blot analysis relative to control. In kind it is functional, cell-based.

The structures appear in SMILES notation. Activity calls are given as the source filed them. No cut-off for these calls is given here.

Take `COc1c(I)c2c(c(OC)c1OC)-c1ccc(SC)c(=O)cc1[C@@H](NC(=O)C(C)C)CC2`: the IC50 – broadly, the point on the concentration scale where inhibition reaches its midpoint – in [1] stood at 19.9 nM; with A549, 62.6 nM; in the assay with MCF7, 44.5 nM; with LoVo it was 7 nM; in “cells”, 91.3 nM; with BALB/3T3 it was 69.7 nM. In assay [2], the “Ratio IC50” value came to 13.
In the case of `COc1cc2c(c(OC)c1OC)-c1ccc(SC)c(=O)cc1[C@@H](NC(=O)CCCCl)CC2`, the IC50 in assay [1] was found to be 5.9 nM; with A549, 13.3 nM; with MCF7, 11.9 nM; with LoVo, 8.4 nM; in the assay “cells”, 102 nM; in the assay with BALB/3T3, 20.2 nM. In addition, the “Ratio IC50” value in [2] came to 12.2. Moreover, in the assay on ALL5 [3], the outcome was Active.
With `COc1cc2c(c(OC)c1OC)-c1ccc(SC)c(=O)cc1[C@@H](NC(=O)c1ccccc1)CC2`, the half-maximal inhibitory concentration (IC50) in [1] is 5.7 nM; with A549, 11.2 nM; in the assay with MCF7, 11.2 nM; in the assay on LoVo it was 5.6 nM; in the assay “cells”, 57.9 nM; in the assay on BALB/3T3, 21.6 nM. Moreover, in [2], the “Ratio IC50” value was 10.4.
Regarding `COc1c(I)c2c(c(OC)c1OC)-c1ccc(SC)c(=O)cc1[C@@H](NC(=O)c1ccccc1)CC2`, the IC50 was found to be 25.4 nM in assay [1]; 13.3 nM in the assay with A549; 47.5 nM in the assay with MCF7; 7.2 nM in the assay on LoVo; 72.9 nM in “cells”; 76.2 nM in the assay with BALB/3T3. In addition, in assay [2], the “Ratio IC50” value was 10.2.
Take `COc1cccc2c1C(=O)c1c(O)c3c(c(O)c1C2=O)C[C@@](O)(C(=O)CO)C[C@@H]3O[C@H]1C[C@H](N)[C@H](O)[C@H](C)O1` [DOXORUBICIN]: the results for the 50% inhibitory concentration (IC50) with A549 and in “cells” were 258 nM and 4750 nM, respectively. Besides, the result with ALL5 [4] was Active.
As to `CCC(=O)N[C@H]1CCc2c(I)c(OC)c(OC)c(OC)c2-c2ccc(SC)c(=O)cc21`, the IC50 in assay [1] amounted to 9 nM; with A549, 11.4 nM; in the assay on MCF7, 10.8 nM; in the assay with LoVo, 7.2 nM; in “cells”, 168 nM; in the assay with BALB/3T3, 39.6 nM. Further, the “Ratio IC50” value in assay [2] is 23.3. In the assay with ALL5 [5], the result was Active.
Consider `COc1cc2c(c(OC)c1OC)-c1ccc(SC)c(=O)cc1[C@@H](NC(=O)C(C)C)CC2`, for which the 50% inhibitory concentration (IC50) came to 5.5 nM in [1]; 15.8 nM in the assay on A549; 13.5 nM with MCF7; 9 nM in the assay with LoVo; 174 nM in “cells”; 69.9 nM with BALB/3T3. Besides, the “Ratio IC50” value in [2] is listed as 19.3. In addition, in the assay on ALL5 [3], the outcome was Active.
On to `COCC(=O)N[C@H]1CCc2c(I)c(OC)c(OC)c(OC)c2-c2ccc(SC)c(=O)cc21`, for which the half-maximal inhibitory concentration (IC50) in assay [1] turned out to be 15 nM; with A549, 10.5 nM; in the assay with MCF7 it was 10.5 nM; in the assay with LoVo it was 7 nM; in the assay “cells”, 92.2 nM; in the assay with BALB/3T3, 51.2 nM. Besides, the “Ratio IC50” value in assay [2] is reported as 13.2.
For `CCN(CC)C(=O)N[C@H]1CCc2c(I)c(OC)c(OC)c(OC)c2-c2ccc(SC)c(=O)cc21`, the IC50 in assay [1] stood at 81.9 nM; in the assay with A549 it was 81.3 nM; in the assay on MCF7, 94.7 nM; in the assay on LoVo, 64.6 nM; in the assay “cells”, 794 nM; in the assay with BALB/3T3, 107 nM. Moreover, in assay [2], the “Ratio IC50” value is recorded as 12.3.
Regarding `CCC(=O)N[C@H]1CCc2cc(OC)c(OC)c(OC)c2-c2ccc(SC)c(=O)cc21`, the IC50 in assay [1] stood at 4.6 nM; in the assay with A549, 13.2 nM; with MCF7, 12.4 nM; with LoVo, 8.5 nM; in the assay “cells”, 163 nM; in the assay on BALB/3T3, 17.9 nM. Moreover, the “Ratio IC50” value in [2] amounted to 19.1. Moreover, the outcome in the assay with ALL5 [6] was Active.
As to `COc1c(I)c2c(c(OC)c1OC)-c1ccc(SC)c(=O)cc1[C@@H](N)CC2`, the half-inhibitory concentration (IC50) was determined as 135 nM in [1]; 866 nM with A549; 1700 nM in the assay on MCF7; 126 nM with LoVo; 844 nM in the assay “cells”; 1420 nM in the assay on BALB/3T3. The “Ratio IC50” value in [2] was found to be 6.7.
Consider `CCN(CC)C(=O)N[C@H]1CCc2cc(OC)c(OC)c(OC)c2-c2ccc(SC)c(=O)cc21`, for which the IC50 amounted to 17.4 nM in assay [1]; 133 nM with A549; 113 nM in the assay with MCF7; 69.1 nM in the assay with LoVo; 1100 nM in “cells”; 88.2 nM with BALB/3T3. Also, in [2], the “Ratio IC50” value is 16.
Take `CCCCCCCCCC(=O)N[C@H]1CCc2c(I)c(OC)c(OC)c(OC)c2-c2ccc(SC)c(=O)cc21`: the IC50 in assay [1] amounted to 615 nM; with A549, 833 nM; in the assay on MCF7, 846 nM; in the assay on LoVo it was 568 nM; in the assay “cells” it was 3870 nM; in the assay with BALB/3T3 it was 305 nM. In assay [2], the “Ratio IC50” value was determined as 6.8.
As for `COc1c(I)c2c(c(OC)c1OC)-c1ccc(SC)c(=O)cc1[C@@H](NC(C)=O)CC2`, the results for the IC50 (in [1]; in the assay on LoVo) were 8.7 nM and 7.4 nM, respectively. Moreover, the “Ratio IC50” value in assay [2] is recorded as 91.7. In the assay on ALL5 [3], the outcome was Active.
For the compound `COc1c(I)c2c(c(OC)c1OC)-c1ccc(OC)c(=O)cc1[C@@H](NC(C)=O)CC2`, the IC50 in assay [1] was found to be 15.5 nM; in the assay with A549 it was 93.9 nM; with MCF7, 97.7 nM; in the assay with LoVo, 10.2 nM; in “cells”, 2780 nM; in the assay on BALB/3T3, 135 nM. In assay [2], the “Ratio IC50” value is 278.
Take `COc1cc2c(c(OC)c1OC)-c1ccc(OC)c(=O)cc1[C@@H](NC(C)=O)CC2` [COLCHICINE]: the half-inhibitory concentration (IC50) in assay [1] came out at 8.6 nM; with BALB/3T3 it was 106 nM. Also, in the assay on ALL5 [7], the result was Active.
Take `CCCCCCCCCC(=O)N[C@H]1CCc2cc(OC)c(OC)c(OC)c2-c2ccc(SC)c(=O)cc21`: the IC50 in [1] is 27.3 nM; in the assay on A549, 13.3 nM; with MCF7, 66.3 nM; in the assay with LoVo, 7.6 nM; in the assay “cells”, 84.6 nM; in the assay on BALB/3T3, 87.2 nM. The “Ratio IC50” value in assay [2] is 11.2.
As to `COCC(=O)N[C@H]1CCc2cc(OC)c(OC)c(OC)c2-c2ccc(SC)c(=O)cc21`, the half-maximal inhibitory concentration (IC50) came to 8.5 nM in assay [1]; 13.5 nM in the assay on A549; 12.7 nM with MCF7; 8.2 nM in the assay on LoVo; 132 nM in the assay “cells”; 12 nM in the assay with BALB/3T3. The “Ratio IC50” value in assay [2] was determined as 16.
Regarding `COc1c(I)c2c(c(OC)c1OC)-c1ccc(SC)c(=O)cc1[C@@H](NC(=O)CCCCl)CC2`, the IC50 in assay [1] worked out at 47.5 nM; in the assay with A549, 82.8 nM; in the assay with MCF7, 89.4 nM; with LoVo, 39.2 nM; in the assay “cells”, 529 nM; in the assay with BALB/3T3, 87.8 nM. For the same compound, the “Ratio IC50” value in assay [2] is on record as 13.5.

The record behind these values is ChEMBL document CHEMBL4680353, “Synthesis, anticancer activity and molecular docking studies of N-deacetylthiocolchicine and 4-iodo-N-deacetylthiocolchicine derivatives” (Bioorg Med Chem, 2021).
